Experimental data from paper PMC11031590, “Narazaciclib, a novel multi-kinase inhibitor with potent activity against CSF1R, FLT3 and CDK6, shows strong anti-AML activity in defined preclinical models” (Scientific Reports, 2024).

How the values were obtained:
[1] = system: MV-4-11 subcutaneous xenograft; assay: MV-4-11 subcutaneous xenograft model; assay type: in vivo, NOD/scid mice; conditions: Azacitidine 3 mg/kg intraperitoneally twice per week for 3 weeks
Excerpt: The subcutaneous cell line xenograft (CDX) models and systemic patient-derived xenograft (PDX) models of AML have been extensively described before. For the subcutaneous MV-4-11 CDX model, 5 × 10^6 MV-4-11 tumor cells harvested from exponential growth phase were mixed with Matrigel (1:1) and then inoculated into the right front flank region of 6- to 7-week-old female NOD/scid mice for tumor development. MV-4-11 tumor-bearing mice were randomized into 5 groups (N = 8) when their tumor volume reached approximately 100 mm^3 and received their designated treatments following randomization. Narazaciclib was administrated intraperitoneally at 100 mg/kg twice per week for 3 weeks, while Azacitidine was administrated intraperitoneally at 3 mg/kg twice per week for 3 weeks. For the subcutaneous Ba/F3-ETV6-CSF1R CDX model, 1 × 10^6 Ba/F3-ETV6-CSF1R tumor cells harvested from exponential growth phase were mixed with Matrigel (1:1) and then inoculated into the right front flank region of 6- to 8-week-old female NOD/scid mice for tumor development. Ba/F3-ETV6-CSF1R tumor-bearing mice were randomized into 5 groups (N = 6) when their tumor volume reached approximately 100 mm^3 and received their designated treatments following randomization. […] Tumor volume and body weight were measured at different time points and tumor growth inhibition (TGI) was used as index to determine the therapeutic efficacy.

[2] = system: Ba/F3-CSF1R cell line; assay: Ba/F3-CSF1R proliferation assay (CTG); assay type: cell-based, mouse; conditions: + 100 ng/ml CSF-1
Procedure: (§1) The recombinant Ba/F3 cell lines overexpressing human CSF1R, or human RBM6-CSF1R, or human ETV6-CSF1R were generated using a retrovirus vector (Kyinno Co., Ltd. Beijing). The recombinant Ba/F3 lines overexpressing human Kras G12C orEGFR-L718Q mutants, and different mutant variants of FLT3 were also similarly created as well. A standard proliferation assay via CTG readout was performed according to the vendor’s instructions (KYinno Biotechnology Co., Ltd. Beijing).

[3] = system: Ba/F3-RBM6-CSF1R cell line; assay: Ba/F3-RBM6-CSF1R proliferation assay (CTG); assay type: cell-based, mouse; conditions: not requiring CSF1
Procedure: as §1

[4] = system: MV-4-11 subcutaneous xenograft; conditions: prior knowledge; cited from earlier work
[5] = system: AM8096 AML-PDX; assay: AM8096 systemic AML-PDX model; assay type: in vivo, NOD/scid mice; conditions: AM8096, quizartinib
Procedure: For systemic AML-PDX models, the model establishment and narazaciclib pharmacology experiment were performed essentially as described previously. Briefly, 2 × 10^6 AM7407 cells, or 2 × 10^6 AM7577 cells, or 2 × 10^6 AM5512 cells, or 1.65 × 10^6 AM8096 cells were inoculated intravenously into 4- to 5-week-old female NOD/scid mice for AML development. Engraftment was confirmed by the presence of circulating human CD45+ cells (anti-human CD45 antibody, Cat. 304038, Biolegend) in peripheral blood. Mice with successful engraftment of AML-PDX were randomized into different treatment groups (N = 6) and received their designated treatments. Narazaciclib was administrated orally or intraperitoneally at 10 mg/kg, or 30 mg/kg, or 100 mg/kg every day throughout the study, while Cytarabine was administrated intraperitoneally at 3 mg/kg every day. Following the initiation of designated treatments, leukemic burden was monitored by flow cytometry with anti-human CD45 antibody on the peripheral blood every week as well as on the peripheral blood, bone marrow cells and splenocytes of mice at sacrifice. Mice were sacrifice once the followings are observed: body weight loss over 20%, reduced motility and activity, labored breathing, ruffled coat, hunched back and severe dehydration.

Compound: Nc1ncn([C@@H]2O[C@H](CO)[C@@H](O)[C@H]2O)c(=O)n1 [Azacitidine, reference compound]
- anti-AML effect (tumor growth) [1]: little anti-AML effect

Compound: COc1ccc(COc2ccc(Cc3cnc(N)nc3N)cc2OC)cc1 [GW2580, reference compound]
- IC50 [2]: 59.5 nM
- IC50 [3]: 344 nM

Compound: FC(F)(F)c1ccc(CNc2ccc(Cc3c[nH]c4ncc(Cl)cc34)cn2)cn1 [Pexidartinib, pexidartinib, reference compound]
- IC50 ([2]; Mus musculus): ~3.88 nM
- IC50 ([3]; Mus musculus): 147 nM

Compound: CCc1nc(C(N)=O)c(Nc2ccc(N3CCC(N4CCN(C)CC4)CC3)c(OC)c2)nc1NC1CCOCC1 [gilteritinib]
- response of MV-4-11 to FLT3i [4]: responded

Compound: CC(C)(C)c1cc(NC(=O)Nc2ccc(-c3cn4c(n3)sc3cc(OCCN5CCOCC5)ccc34)cc2)no1 [quizartinib, reference compound]
- response of model [5]: responded poorly
- response of MV-4-11 to FLT3i [4]: responded

Compound: CNC(=O)c1cc(Oc2ccc(NC(=O)Nc3ccc(Cl)c(C(F)(F)F)c3)cc2)ccn1 [sorafenib]
- response of MV-4-11 to FLT3i [4]: responded
